From US20260273029A1, “DRY EYE TREATMENT” (Inoculus Ventures, LLC, priority 2022, published 2026)

How the values were obtained:
[1] = test system: Staphylococcus aureus biofilms; test: S. Aureus biofilm reduction in 96 well plate: 10 min treatment, crystal violet stain, optical density at 600 nm; assay type: cell-based, Staphylococcus aureus subsp. aureus Rosenbach (ATCC 29213); details: for Reduction in Enzyme Effectiveness by preservative: 10 mg/mL α-amylase + preservative, FIG. 12A, 12B
Description: • Step 1. Place a new CuveTip on the Photopette • Step 2. Turn on the Photopette and ensure the bluetooth has connected to the iPad. • Step 3. Open the App and set the measurement to collect at 600 nm (use ecoli setting for brevity). • Step 4. Zero the Photopette in DI water, and clean the tip with a chemwipe. • Step 5. Aseptically transfer 100 ml of the TSB citrate media (TSBC) to a flask. • Step 6. Aseptically transfer the overnight culture of Staphylococcus aureus subsp. aureus Rosenbach (ATCC 29213) in Tryptic Soy Broth to the TSB citrate media (TSBC) using a pipet until the culture is diluted to A600 of 0.02 (~2×10^8 CFU/ml) measured with the Photopette. • Step 7. Remove a sterile 96 well plate from the sterile packaging in the hood and place on the table. • Step 8. Set an 8 channel pipet for […] and attach sterile tips. • Step 9. Plate the desired number of wells with […] of the diluted culture. • Step 10. Cover the well plate and incubate overnight for 18 hrs at 37° C.
Plate S. Aureus in all wells of a 96 tissue culture treated well plate. The well plate should incubate for 18 hrs at 37° C. before being assayed for biofilm formation.
Carefully tilt plate and pipet all liquid from the wells by inserting the pipet tips in the bottom corner of the wells to remove non-adherent cells without disturbing the biofilm grown on the bottom of the well.
Start a timer for 10 minutes when the first row is treated using an 8-channel pipette. Each row should be treated every 30 seconds making sure to gently release the composition in the corner of the well to not disturb the biofilm mechanically.
After 10 min all fluid should be removed row by row every 30 seconds starting with Row 1. The fluid must be removed with gentle pipetting, with the plate at an angle, with the pipette in the corner to remove non-adherent cells without disturbing the biofilm grown on the bottom of the well.
Add 50 μl of 0.1% crystal violet (CV) to stain adherent cells for all wells.
Carefully rinse all wells by submerging the plate in a DI water bath to remove all remaining crystal violet.
Dry the well plate and measure the optical density of the biofilms using a plate reader at 600 nm.
Repeat the steps outlined in 1.2 and 1.3 for scheduled testing days on days 7, 14, 21, 28, and 35. For each day of testing scheduled at days 7, 14, 21, 28, and 35 a well plate of biofilm should be prepared the day before.
The remaining biofilm density was assessed using a cell plate reader at 600 nm called an optical density 600 (OD600) measurement.
Staphylococcus aureus biofilms were grown in 96 well (Corning Falcon) cell culture treated plates using a TSB broth supplemented with yeast extract, glucose, and sodium citrate to induce biofilm formation and incubated for 18 hours.
Non-adherent cells were removed and the biofilms were treated with different solutions to test the ability to break down the Staph. aureus biofilms. Solutions with α-amylase were produced at 10 mg/mL using α-amylase from Aspergillus oryzae (Sigma-Aldrich Catalog #10065) ~30 U/mg.
After 10 minutes of incubation non-adherent cells were removed and the residual biofilms were stained with crystal violet. The density of the remaining biofilm was measured at 600 nm using a Byonoy Absorbance 96 plate reader.
Staphylococcus aureus biofilms were grown in 96 well (Crnming Falcon) cell culture treated plates using a TSB broth supplemented with yeast extract, glucose, and sodium citrate to induce biofilm formation and incubated for 18 hours. […]

biofilm on the eyelid = test: Treatment of a human subject (Example 13): eyelid photographs and reported symptoms; assay type: in vivo; details: daily Avenova
Source text: All images are from the same subject at the Watson Dry Eye Center in Raleigh NC at the specified times. The images were reviewed retrospectively to determine if the visual signs of biofilm on the eyelid were removed by a composition of α-amylase from Aspergillus oryzae and 0.01% hypochlorous acid. It should be noted that from May 23, 2018-Nov. 20, 2020 the patient cleaned their eyes with just 0.01% hypochlorous acid in saline two times a day. After this, the patient used the novel composition of α-amylase from Aspergillus oryzae and 0.01% hypochlorous acid. The first composition was made from powdered α-amylase from Aspergillus oryzae and liquid 0.01% hypochlorous acid in saline right before application to the eyelid with a cotton swab. […] Dosage information is written on the timeline below.
FIG. 1A and FIG. 1B are photographs depicting two different areas of an eye of the subject afflicted with blocked meibomian glands, shiny biofilm at the base of eyelashes, shine biofilm on eyelashes, and lash growth misdirection taken on May 23, 2018 (time 0). After the photos were taken, the subject was treated with Blephex and Intense Pulse Light Therapy for biofilm removal treating inflammation.
Subject received a subsequent treatment session on Dec. 4, 2018. FIG. 2A and FIG. 2B are photographs depicting the two different areas of the eye of the subject on Dec. […]

## OCl [0.01% hypochlorous acid, hypochlorous acid]
[1]; 0.01% hypochlorous acid with 10 mg/ml α-amylase and cofactors, FIG. 13
  inhibition of biofilm removal by the enzyme: did not inhibit biofilm removal by the enzyme
[1]; without α-amylase, 10 min
  biofilm reduction by the additive on its own: slightly reduce the biofilm
Biofilm on the eyelid; time 2 (June 18 2019), FIG. 3A
  biofilm at the eyelashes: the biofilm continues to grow at the base of the eyelashes
Biofilm on the eyelid; time 3 (October 15 2019), FIGS. 4A and 4B
  biofilm at the eyelashes and eyelid: the shine biofilm remains at the eyelashes and inside the eyelid

## OC[C@H]1O[C@H](O[C@H]2O[C@H](CO)[C@@H](O)[C@H](O)[C@H]2O)[C@H](O)[C@@H](O)[C@@H]1O [Trehalose]
[1]; 3%, 6.8%, and 8% Trehalose solutions, α=0.05, FIG. 17
  differences in the enzyme activity (break down of biofilms) between concentrations: no significant differences

## benzalkonium chloride [BAK (benzalkonium chloride) 0.01%]
[1]; 10 min
  Reduction in Enzyme Effectiveness by preservative: No Reduction in Enzyme Effectiveness

## sodium perborate [GenAqua/Dequest (sodium perborate)]
[1]; 10 min
  Reduction in Enzyme Effectiveness by preservative: No Reduction in Enzyme Effectiveness
